# In US20240083846A1, “SMAC MIMETICS FOR TREATMENT OF CANCER, PROCESS FOR PREPARATION AND PHARMACEUTICAL COMPOSITION THEREOF” (COUNCIL OF SCIENTIFIC & INDUSTRIAL RESEARCH, priority 2020, published 2024):
# Where two headings read alike, the source gives them in different places. Where a SMILES comes first, the peptide text is derived from it. [ ]: non-standard residue; d: D form. The star is where a group is joined. Pro(5R-(5-methylfur-2-yl)) = Cc1ccc([C@H]2CC[C@@H](C(=O)O)N2)o1; NHCHPh2 = c1ccc(C(N*)c2ccccc2)cc1; Chg = N[C@H](C(=O)O)C1CCCCC1; NMeA = CN[C@@H](C)C(=O)O; OBn = c1ccc(CO*)cc1
# Experiments:
# [1] = system: HCT 116 cells; experiment: SRB cytotoxicity assay, HCT 116; assay type: cell-based; settings: Homo sapiens, read-out: In vitro cytotoxicity at 10 μM dose, HCT 116 (percent growth inhibition)
# Protocol: (§1) In vitro cytotoxic activities of different compounds were assessed by using standard SRB assay in different cells. The absorbance of the treated and untreated cells was measured on a multi-well scanning spectrophotometer (Epoch Microplate Reader, Biotek, USA) at a wavelength of 510 nm. Percent growth inhibition was calculated by using the formula […].
# [2] = system: SW 620 cells; experiment: SRB cytotoxicity assay, SW 620; assay type: cell-based; settings: for inhibition at 10 µM: Homo sapiens, read-out: In vitro cytotoxicity at 10 μM dose, SW 620 (percent growth inhibition)
# Protocol: as §1
# [3] = target: XIAP BIR3 protein (Homo sapiens, UniProt P98170); experiment: Fluorescence polarization competition binding assay, XIAP BIR3
# Chain of XIAP BIR3 protein (P98170 241-356 limits assumed): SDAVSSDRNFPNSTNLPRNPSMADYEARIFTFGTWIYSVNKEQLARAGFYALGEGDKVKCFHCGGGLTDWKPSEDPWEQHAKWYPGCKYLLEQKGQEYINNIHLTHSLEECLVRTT
# Protocol: (§2) The SMAC mimetics 1-9 were tested for their ability to displace the fluorescent labeled peptide AVPIAQK(FAM)-OH from XIAP BIR2 or XIAP BIR3 protein. The dose dependent binding experiment were then carried out by sequentially increasing the concentration of SMAC mimetic compounds at constant concentration of fluorescent labeled peptide and XIAP BIR2 or XIAP BIR3 protein. IC5- values were determined from the plot draw by prism software using nonlinear least-squares analysis. The Ki values of the SMAC mimetics were calculated which was based upon the measured IC50 values, the Kd value between tracer AVPIAQK(FAM)-OH and XIAP BIR2 or XIAP BIR3 complex, and the concentrations of the protein and tracer in the competition assay by using the web based program which are freely accessed at http://sw16.im.med.umich.edu/software/calc_ki/.In-silico.
# (§3) Binding isotherms were plotted between FP reading versus log values of protein concentration in nM. The data was analysed using GraphPad prism and Kd values were determined using Boltzmann-sigmoidal non-linear regression curve fitting.
# [4] = SRB cytotoxicity assay, VERO; assay type: cell-based, monkey; settings: monkey
# Protocol: as §1
# [5] = system: HT29 cells; experiment: SRB cytotoxicity assay, HT29; assay type: cell-based; settings: for inhibition at 10 µM: Homo sapiens, read-out: In vitro cytotoxicity at 10 μM dose, HT29 (percent growth inhibition)
# Protocol: as §1
# [6] = target: XIAP BIR2 protein (Homo sapiens, UniProt P98170); experiment: Fluorescence polarization competition binding assay, XIAP BIR2
# Chain of XIAP BIR2 protein (P98170 124-240 limits assumed): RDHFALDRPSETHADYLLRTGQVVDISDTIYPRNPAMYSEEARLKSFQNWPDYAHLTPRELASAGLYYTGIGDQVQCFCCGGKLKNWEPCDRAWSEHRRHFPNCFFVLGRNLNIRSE
# Protocol: as §2, §3
# [7] = system: SW-620 xenograft; experiment: Cisplatin resistant SW-620 xenograft model; assay type: in vivo, nude Crl: CD1-Foxnlnu mice; settings: FIG. 7
# From the text: All the animals were maintained in a pathogen-free facility under a day—night cycle.
# [8] = HCT-116, 10 μM, 48 hours, SRB assay
# [9] = SW-620, 10 μM, 48 hours, SRB assay
# [10] = displacement of AVPIAQK(FAM)-OH, fluorescence polarization, read-out: Target Binding BIR3 Ki
# [11] = VERO cells, 10 μM, 48 hours, SRB assay, read-out: In vitro cytotoxicity at 10 μM dose, VERO (percent growth inhibition)
# [12] = HT-29, 10 μM, 48 hours, SRB assay
# [13] = displacement of AVPIAQK(FAM)-OH, fluorescence polarization, read-out: Target Binding BIR2 Ki
smiles,measurement,setting,value
"CC[C@H](C)[C@H](NC(=O)[C@@H]1CC[C@H](c2ccc(C)o2)N1C(=O)[C@@H](NC(=O)[C@H](C)N)C(C)C)C(=O)OCc1ccccc1 [Compound 2, benzyl ((2S,5R)-1-(L-alanyl-L-valyl)-5-(5-methylfuran-2-yl)pyrrolidine-2-carbonyl)-L-isoleucinate]",inhibition at 10 µM,[1]; [8],-7.06 ± 6.9%
same,inhibition at 10 µM,[2]; [9],7.88 ± 8%
same,Ki,[3]; [10],> 10000 nM
same,"inhibition at 48 h, 10 μM",[4]; [11],24.2 ± 22.7%
same,inhibition at 10 µM,[5]; [12],-1.83 ± 5.5%
same,Ki,[6]; [13],> 10000 nM
"CC[C@H](C)[C@H](NC(=O)[C@@H]1CC[C@H](c2ccc(C)o2)N1C(=O)[C@@H](NC(=O)[C@H](C)NC)C1CCCCC1)C(=O)OCc1ccccc1 [Compound 7, (2S,3S)-benzyl 2-((2S,5R)-1-((S)-2-cyclohexyl-2-((S)-2-(methylamino)propanamido)acetyl)-5-(5-methylfuran-2-yl)pyrrolidine-2-carboxamido)-3-methylpentanoate] (H-[NMeA][Chg][Pro(5R-(5-methylfur-2-yl))]I-OBn)",inhibition at 10 µM,"[1]; HCT-116, 48 h",76.5 ± 2.3%
same,inhibition at 10 µM,"[2]; SW-620, 48 h",52.9 ± 22.4%
same,Ki,[3]; [10],1420 nM
same,"inhibition at 48 h, 10 μM",[4],63.2 ± 5%
same,inhibition at 10 µM,"[5]; HT-29, 48 h",71.6 ± 10.2%
same,Ki,[6]; [13],> 10000 nM
"CN[C@@H](C)C(=O)N[C@H](C(=O)N1[C@@H](c2ccc(C)o2)CC[C@H]1C(=O)NC(c1ccccc1)c1ccccc1)C1CCCCC1 [Compound 8, (2S ,5R)-N-benzhydryl-1-((S)-2-cyclohexyl-2-((S)-2-(methylamino)propanamido)acetyl)-5-(5-methylfuran-2-yl)pyrrolidine-2-carboxamide]",inhibition at 10 µM,[1]; [8],48.5 ± 6.7%
same,inhibition at 10 µM,[2]; [9],38.7 ± 12.6%
same,Ki,[3]; [10],730 nM
same,"inhibition at 48 h, 10 μM",[4]; [11],39.4 ± 6.9%
same,inhibition at 10 µM,[5]; [12],66 ± 2.4%
same,Ki,[6]; [13],1800 nM
"CC[C@H](C)[C@H](NC(=O)[C@@H]1CCCN1C(=O)[C@@H](NC(=O)[C@H](C)N)C(C)C)C(=O)O [Compound 1, L-alanyl-L-valyl-L-prolyl-L-isoleucine]","In vitro cytotoxicity at 10 μM dose, SW 620 (percent growth inhibition)","[2]; 10 μM, 48 hours, SRB assay",0.97 ± 2.3%
same,"In vitro cytotoxicity at 10 μM dose, HT29 (percent growth inhibition)","[5]; 10 μM, 48 hours, SRB assay",−0.01 ± 3.6%
"CC[C@H](C)[C@H](NC(=O)[C@@H]1CC[C@H](c2ccc(C)o2)N1C(=O)[C@@H](NC(=O)[C@H](C)NC)C1CCCCC1)C(=O)NC(c1ccccc1)c1ccccc1 [Compound 9, (2S,5R)-N-((2S ,3S)-1-(benzhydrylamino)-3-methyl-l-oxopentan-2-yl)-1-((S)-2-cyclohexyl-2-((S)-2-(methylamino)propanamido)acetyl)-5-(5-methylfuran-2-yl)pyrrolidine-2-carboxamide] (H-[NMeA][Chg][Pro(5R-(5-methylfur-2-yl))]I-NHCHPh2)",inhibition at 10 µM,"[1]; HCT-116, 48 h",66.2 ± 15%
same,inhibition at 10 µM,"[2]; SW-620, 48 h",81.8 ± 3.3%
same,Ki,[3],790 nM
same,"inhibition at 48 h, 10 μM","[4]; 10 μM, 48 hours, SRB assay, read-out: In vitro cytotoxicity at 10 μM dose, VERO (percent growth inhibition)",59.4 ± 11.7%
same,inhibition at 10 µM,"[5]; HT-29, 48 h",72.7 ± 6.9%
same,Ki,[6],> 10000 nM
"CC[C@H](C)[C@H](NC(=O)[C@@H]1CC[C@H](c2ccc(C)o2)N1C(=O)[C@@H](NC(=O)[C@H](C)NC)C(C)C)C(=O)OCc1ccccc1 [Compound 4, (2S,3S)-benzyl 3-methyl-2-((2S,5R)-1-((S)-3-methyl-2-((S)-2-(methylamino)propanamido)butanoyl)-5-(5-methylfuran-2-yl)pyrrolidine-2-carboxamido)pentanoate]",inhibition at 10 µM,[1]; [8],-8.07 ± 6.6%
same,inhibition at 10 µM,[2]; [9],-4.1%
same,Ki,[3]; [10],4380 nM
same,"inhibition at 48 h, 10 μM",[4]; [11],4.54 ± 5.6%
same,inhibition at 10 µM,[5]; [12],12 ± 0.6%
same,Ki,[6]; [13],7390 nM
"CN[C@@H](C)C(=O)N[C@H](C(=O)N1[C@@H](c2ccc(C)o2)CC[C@H]1C(=O)NC(c1ccccc1)c1ccccc1)C(C)C [Compound 5, (2S,5R)-N-benzhydryl-1-(methyl-L-alanyl-L-valyl)-5-(5-methylfuran-2-yl)pyrrolidine-2-carboxamide]",inhibition at 10 µM,[1]; [8],5.96 ± 1.2%
same,inhibition at 10 µM,[2]; [9],8.11 ± 11.3%
same,Ki,[3]; [10],500 nM
same,"inhibition at 48 h, 10 μM",[4]; [11],11.4 ± 1.1%
same,inhibition at 10 µM,[5]; [12],40.9 ± 5.3%
same,Ki,[6]; [13],3250 nM
"Cc1ccc([C@H]2CC[C@@H](C(=O)NC(c3ccccc3)c3ccccc3)N2C(=O)[C@@H](NC(=O)[C@H](C)N)C(C)C)o1 [Compound 3, (2S,5R)-1-(L-alanyl-L-valyl)-N-benzhydryl-5-(5-methylfuran-2-yl)pyrrolidine-2-carboxamide]",inhibition at 10 µM,[1]; [8],-2.6 ± 6.1%
same,inhibition at 10 µM,[2]; [9],1.44 ± 2.1%
same,Ki,[3]; [10],230 nM
same,"inhibition at 48 h, 10 μM",[4]; [11],3.89 ± 3.4%
same,inhibition at 10 µM,[5]; [12],-0.46 ± 2.2%
same,Ki,[6]; [13],1080 nM
"N.N.[Cl][Pt][Cl] [cisplatin, reference compound]",In vivo anti tumor efficacy,[7],failed to deliver its effect
